Laboratory results reported in US9856279B2 (AGIOS PHARMACEUTICALS, INC, priority 2011, dated 2018).
pIC50: −log10 of the molar value.

Columns and labels:
[1] = target: IDH1 R132H (Homo sapiens, UniProt O75874, R132H); experiment: Assay for IDH1 R132H inhibitors (NADPH/aKG, resazurin detection); type: biochemical; details: enzyme assay of Example 12; read-out: IDH1R132H IC50
Outline: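 Read-out is resorufin fluorescence (Ex544/Em590) 5 min after adding a 30 μM resazurin detection mix. Before that, mutant enzyme (0.2 μg/ml in its mix) ran 50 min at room temperature with compound, 8 uM NADPH and 2 mM aKG (mix levels) in Tris pH 7.5 with NaCl, MgCl2, BSA.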

[2] = test system: HT1080 cells; experiment: Cellular assay for IDH1m inhibitors: inhibition of 2-HG production (LC-MS, 48 hours) in HT1080 cells; type: cell-based; details: Homo sapiens, HT-1080; inhibition of 2-HG production, HT1080 cells; read-out: HT1080 IC50
Outline: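 Each cell line is plated at 5000 cells/well in DMEM with 10% FBS and left overnight at 37 °C. Test compounds are then added for 48 h, after which 2-HG in the medium is determined by LC-MS; IC50 reflects 50% reduction compared with control.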

[3] = test system: U87MG cells; experiment: Cellular assay for IDH1m inhibitors: inhibition of 2-HG production (LC-MS, 48 hours) in U87MG cells; type: cell-based; details: Homo sapiens, U-87 MG, inhibition of 2-HG production, U87R132H cells; read-out: U87R132H IC50
Description: Cells (e.g., HT1080 or U87MG) and are grown in T125 flasks in DMEM containing 10% FBS, 1× penicillin/streptomycin and 500 ug/mL G418. They are harvested by trypsin and seeded into 96 well white bottom plates at a density of 5000 cell/well in 100 ul/well in DMEM with 10% FBS. No cells are plates in columns 1 and 12. Cells are incubated overnight at 37° C. in 5% CO2. The next day compounds are made up at 2× concentration and 100 ul are added to each cell well. The final concentration of DMSO is 0.2% and the DMSO control wells are plated in row G. The plates are then placed in the incubator for 48 hours. At 48 hours, 100 μl of media is removed from each well and analyzed by LC-MS for 2-HG concentrations. The cell plate is placed back in the incubator for another 24 hours. At 72 hours post compound addition, 10 mL/plate of Promega Cell Titer Glo reagent is thawed and mixed. The cell plate is removed from the incubator and allowed to equilibrate to room temperature. Then 100 ul of reagent is added to each well of media. The cell plate is then placed on an orbital shaker for 10 minutes and then allowed to sit at room temperature for 20 minutes. The plate is then read for luminescence with an integration time of 500 ms.
The IC50 for inhibition of 2-HG production (concentration of test compound to reduce 2HG production by 50% compared to control) in these two cell lines for various compounds of formula I is set forth in Table 4 above.

Chain of IDH1 R132H (O75874 whole entry R132H): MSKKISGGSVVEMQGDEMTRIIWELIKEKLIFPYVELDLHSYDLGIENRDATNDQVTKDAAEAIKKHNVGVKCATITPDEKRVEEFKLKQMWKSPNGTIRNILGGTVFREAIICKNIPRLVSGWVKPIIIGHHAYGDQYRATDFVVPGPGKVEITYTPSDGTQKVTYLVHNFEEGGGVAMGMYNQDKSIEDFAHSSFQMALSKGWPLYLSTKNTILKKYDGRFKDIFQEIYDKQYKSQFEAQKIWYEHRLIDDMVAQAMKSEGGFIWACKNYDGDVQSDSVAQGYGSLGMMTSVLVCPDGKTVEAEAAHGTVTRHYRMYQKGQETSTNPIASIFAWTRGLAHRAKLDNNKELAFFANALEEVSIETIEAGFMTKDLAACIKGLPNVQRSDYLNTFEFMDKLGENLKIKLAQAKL

| SMILES | pIC50 [1] | pIC50 [2] | pIC50 [3] |
| --- | --- | --- | --- |
| C=Cc1cccc(-c2cc(C#N)c(N3CCN(C(=O)C4CC4)[C@H](C4CC4)C3)nc2C2CC2)n1 [Compound 499, (R)-6′-(4-(cyclopropanecarbonyl)-3-cyclopropylpiperazin-1-yl)-2′-cyclopropyl-6-vinyl-2,3′-bipyridine-5′-carbonitrile] | 6.00 to 6.30 | 5.00 to 6.00 | 5.00 to 6.00 |
| C=Cc1cnnc(-c2cc(C#N)c(N3CCN(C(=O)CCO)[C@H](C4CC4)C3)nc2C2CC2)c1 [Compound 716, (R)-6-cyclopropyl-2-(3-cyclopropyl-4-(3-hydroxypropanoyl)piperazin-1-yl)-5-(5-vinylpyridazin-3-yl)nicotinonitrile] | > 6.30 | > 6.30 | > 6.30 |
| C=Cc1nc(-c2cc(C#N)c(N3CCN(C(=O)CCO)[C@H](C4CC4)C3)nc2C2CC2)c2ccccc2n1 [Compound 670, (R)-6-cyclopropyl-2-(3-cyclopropyl-4-(3-hydroxypropanoyl)piperazin-1-yl)-5-(2-vinylquinazolin-4-yl)nicotinonitrile] | > 6.30 | > 6.30 | > 6.30 |
| C=Cc1ncc2c(-c3cc(C#N)c(N4CCN(C(=O)CCO)[C@H](C)C4)nc3C3CC3)cccc2n1 [Compound 652, (R)-6-cyclopropyl-2-(4-(3-hydroxypropanoyl)-3-methylpiperazin-1-yl)-5-(2-vinylquinazolin-5-yl)nicotinonitrile] | > 6.30 | > 6.30 | > 6.30 |
| C#CC(=O)N(C)c1cccc(-c2cc(C#N)c(N3CCN(C(=O)CCOC)[C@H](C)C3)nc2C2CC2)c1 [Compound 456] | > 6.30 | > 6.30 | > 6.30 |
| COCCC(=O)N1CCN(c2nc(C3CC3)c(OCc3ccc(C(=O)OC)cc3)cc2C#N)C[C@H]1C [Compound 293, (R)-methyl 4-((5-cyano-2-cyclopropyl-6-(4-(3-methoxypropanoyl)-3-methylpiperazin-1-yl)pyridin-3-yloxy)methyl)benzoate] | > 6.30 | 5.00 to 6.00 | 5.00 to 6.00 |

The next lines start with the values.

| pIC50 [1] | pIC50 [2] | pIC50 [3] | SMILES |
| --- | --- | --- | --- |
| > 6.30 | > 6.30 | > 6.30 | C=Cc1cc(-c2c(C3CC3)nc(N3CCN(C(=O)CCOC)[C@H](C)C3)c(C#N)c2C)ccn1 [Compound 628, (R)-2-cyclopropyl-6-(4-(3-methoxypropanoyl)-3-methylpiperazin-1-yl)-4-methyl-2′-vinyl-[3,4′-bipyridine]-5-carbonitrile] |
| > 6.30 | > 6.30 | > 6.30 | C=Cc1cc(-c2cc(C#N)c(N3CCN(C(=O)CCCO)[C@H](C4CC4)C3)nc2C2CC2)ccn1 [Compound 753, (R)-2-cyclopropyl-6-(3-cyclopropyl-4-(4-hydroxybutanoyl)piperazin-1-yl)-2′-vinyl-3,4′-bipyridine-5-carbonitrile] |
| > 6.30 | > 6.30 | > 6.30 | C=Cc1cc(COc2cc(C#N)c(N3CCN(C(=O)CCOC)[C@H](C)C3)nc2C2CC2)ccn1 [Compound 703, (R)-6-cyclopropyl-2-(4-(3-methoxypropanoyl)-3-methylpiperazin-1-yl)-5-((2-vinylpyridin-4-yl)methoxy)nicotinonitrile] |
| > 6.30 | > 6.30 | > 6.30 | C=Cc1cc(-c2c(C3CC3)nc(N3CCN(C(=O)CCO)[C@H](C4CC4)C3)c(C#N)c2C)cnn1 [Compound 776, (R)-6-cyclopropyl-2-(3-cyclopropyl-4-(3-hydroxypropanoyl)piperazin-1-yl)-4-methyl-5-(6-vinylpyridazin-4-yl)nicotinonitrile] |
| > 6.30 | > 6.30 | > 6.30 | C=Cc1cc(-c2cc(C#N)c(N3CCN(C(=O)COC)[C@H](C4CC4)C3)nc2C2CC2)cnn1 [Compound 715, (R)-6-cyclopropyl-2-(3-cyclopropyl-4-(2-methoxyacetyl)piperazin-1-yl)-5-(6-vinylpyridazin-4-yl)nicotinonitrile] |
| > 6.30 | > 6.30 | > 6.30 | C=Cc1cc(-c2cc(C#N)c(N3CCN(C(=O)CCO)[C@H](C4CC4)C3)nc2C2CC2)ccn1 [Compound 527] |
